Measured values published in patent publication US9963473B2, “Stabilized form of tetrofosmin and its use” (priority 2014, dated 2018).

Tests used:
[1] = Hygroscopicity (open vial, change of weight); type: physicochemical
Excerpt: An open vial of Tetrofosmin x 2 HBF4 was stored at room temperature, normal atmosphere and 50% humidity.

[2] = Storage stability of Tetrofosmin x 2 HBF4 (1H and 31P NMR spectra); type: physicochemical
Description: Tetrofosmin x 2 HBF4 was stored at room temperature without protective gas (e. g. argon or nitrogen). In accordance to example 1, the ^1H and ^31P spectra were unchanged after 12 months.
Moreover, Tetrofosmin x 2 HBF4 was heated in a normal atmosphere (with oxygen) at 50° C. for 6 hours.

Molecule	physical nature / hygroscopicity ([1]; own experiments of the inventors)	change of weight (hygroscopicity) ([1]; open vial, room temperature, normal atmosphere, 50% humidity, after 72 h)	1H and 31P spectra after heating ([2]; normal atmosphere (with oxygen), 50° C. for 6 hours)	1H and 31P spectra after storage ([2]; room temperature, without protective gas, after 12 months)
CCOCCP(CCOCC)CCP(CCOCC)CCOCC.Cl [Tetrofosmin hydrochloride, reference compound]	oily and hygrospcopic			
Tetrofosmin x 2 HBF4		no change of weight	no sign of degradation	unchanged
